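Briefly, cells in 96-well plates were exposed to five compound concentrations for 48 h, and endpoints were estimated by linear interpolation. GI50 is the concentration that inhibits growth by half.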 The source made the active and inactive calls. Rule as the data show it: active = GI50 up to about 1.1 µM and inactive = higher. Peptide text beside a SMILES is read from it. * marks the point of attachment. OSu = O=C1CCC(=O)N1O*
Columns and labels:
Experiment in all cases: NCI anticancer screen, dose series, 48 h
NCI-H460 = test system: NCI-H460
A498 = test system: A498
UACC-62 = test system: UACC-62
ACHN = test system: ACHN
KM12 = test system: KM12
UACC-257 = test system: UACC-257
SF-295 = test system: SF-295
UO-31 = test system: UO-31
HL-60 = test system: HL-60
SF-268 = test system: SF-268
Hs-578T = test system: Hs-578T
K562 = test system: K562
U-251 = test system: U-251
COLO 205 = test system: COLO 205
SK-OV-3 = test system: SK-OV-3
HCT-15 = test system: HCT-15
OVCAR-8 = test system: OVCAR-8
SW-620 = test system: SW-620
MDA-MB-231 = test system: MDA-MB-231
SN12C = test system: SN12C

Structure (SMILES) | GI50 (NCI-H460) | GI50 (A498) | GI50 (UACC-62) | GI50 (ACHN) | GI50 (KM12) | GI50 (UACC-257) | GI50 (SF-295) | GI50 (UO-31) | GI50 (HL-60) | GI50 (SF-268) | GI50 (Hs-578T) | GI50 (K562) | GI50 (U-251) | GI50 (COLO 205) | GI50 (SK-OV-3) | GI50 (HCT-15) | GI50 (OVCAR-8) | GI50 (SW-620) | GI50 (MDA-MB-231) | GI50 (SN12C)
CSC1=C(c2ccc(Cl)cc2)SC(N2CCCCC2)N1c1ccc([N+](=O)[O-])cc1 (centres undefined) | 23.6 µM (inactive) | 19 µM (inactive) | 17.5 µM (inactive) | 25.2 µM (inactive) | 31 µM (inactive) | 24.8 µM (inactive) | 24 µM (inactive) | 32.7 µM (inactive) | 25.5 µM (inactive) | 41.3 µM (inactive) | 47.9 µM (inactive) | 33 µM (inactive) | 21.4 µM (inactive) | 27.1 µM (inactive) | 30.9 µM (inactive) | 26.1 µM | 32.1 µM (inactive) | 38.7 µM (inactive) | 27.1 µM (inactive) | 
COc1cccc2c1C(=N)c1c(O)c3c(c(O)c1C2=O)C[C@@](O)(C(C)=O)C[C@@H]3OC1CC(N)C(O)C(C)O1 (some centres undefined) | 0.00573 µM (active) | 3 µM (inactive) | 0.0094 µM (active) | 0.244 µM (active) | 0.313 µM (active) |  | 0.000206 µM (active) | 0.00369 µM (active) |  | 0.00938 µM (active) | 0.00123 µM (active) | 0.000159 µM (active) | 0.000228 µM (active) | 0.394 µM (active) | 0.43 µM (active) | 3.27 µM |  | 0.199 µM (active) | < 0.01 µM (active) | 0.00771 µM (active)
O=C(/C=C/c1ccc(O)c(O)c1)NC(CO)C(=O)O (centres undefined) | > 100 µM (inactive) | > 100 µM (inactive) | > 100 µM (inactive) | > 100 µM (inactive) | > 100 µM (inactive) | > 100 µM (inactive) | > 100 µM (inactive) | > 100 µM (inactive) |  | > 100 µM (inactive) | > 100 µM (inactive) | > 100 µM (inactive) | > 100 µM (inactive) | > 100 µM (inactive) | > 100 µM (inactive) | 1.08 µM | > 100 µM (inactive) | > 100 µM (inactive) | > 100 µM (inactive) | > 100 µM (inactive)
CN(C)C(=O)C(NCCO)c1ccccc1 (centres undefined) | > 100 µM (inactive) | > 100 µM (inactive) | 61.2 µM (inactive) | > 100 µM (inactive) | 85.7 µM (inactive) | 48.3 µM (inactive) | > 100 µM (inactive) | > 100 µM (inactive) |  | > 100 µM (inactive) | > 100 µM (inactive) |  | 90.6 µM (inactive) | > 100 µM (inactive) | > 100 µM (inactive) | > 100 µM | > 100 µM (inactive) | > 100 µM (inactive) | > 100 µM (inactive) | > 100 µM (inactive)
CSC1=C(C(=O)Nc2ccccc2)C(N)=NC1=O | > 100 µM (inactive) | 56.2 µM (inactive) | 62.8 µM (inactive) |  | > 100 µM (inactive) | > 100 µM (inactive) |  | 17.1 µM (inactive) | > 100 µM (inactive) | > 100 µM (inactive) | > 100 µM (inactive) | > 100 µM (inactive) | > 100 µM (inactive) | > 100 µM (inactive) | > 100 µM (inactive) | > 100 µM | > 100 µM (inactive) | > 100 µM (inactive) | > 100 µM (inactive) | > 100 µM (inactive)
O=c1[nH]c(=O)n(C2CC(O)C(CO)O2)c2nc3ccc4ccccc4c3nc12 (centres undefined) | 21.3 µM (inactive) | > 100 µM (inactive) | 56.9 µM (inactive) | > 100 µM (inactive) | > 100 µM (inactive) | > 100 µM (inactive) | 53.6 µM (inactive) | > 100 µM (inactive) |  | 55.8 µM (inactive) | 55.5 µM (inactive) | 45.2 µM (inactive) | 33.7 µM (inactive) | 64.9 µM (inactive) | > 100 µM (inactive) | 62.2 µM | 79.1 µM (inactive) | 99.8 µM (inactive) | 26.9 µM (inactive) | 51.2 µM (inactive)
CNc1cccc2c1C(C)C[C@]1(C)C(=O)Nc3ccccc3[C@H]21 (some centres undefined) | 21.2 µM (inactive) | 24 µM (inactive) | 37.7 µM (inactive) | 23.1 µM (inactive) | 26.1 µM (inactive) | 13.4 µM (inactive) | 17.7 µM (inactive) | 23.1 µM (inactive) | > 100 µM (inactive) | 34 µM (inactive) | 27.7 µM (inactive) | > 100 µM (inactive) |  | 29.8 µM (inactive) |  | 39.4 µM | 19.1 µM (inactive) | 33.9 µM (inactive) | 20.6 µM (inactive) | 21 µM (inactive)
CCOC(=O)Oc1ccc2c(c1)c(=O)c1c(NCCCN(CC)CC)ccc3nnn2c31 | 0.337 µM (active) | 11.1 µM (inactive) | 15.3 µM (inactive) | 0.82 µM (active) | 0.982 µM (active) | 15.4 µM (inactive) | 1.82 µM (inactive) | 0.598 µM (active) |  | 11.6 µM (inactive) | 20.5 µM (inactive) | 5.13 µM (inactive) | 10.4 µM (inactive) | 11.7 µM (inactive) | 11.3 µM (inactive) | 3.09 µM | 3.48 µM (inactive) | 2.24 µM (inactive) | 1.12 µM (inactive) | 3.67 µM (inactive)
O=C(Nc1nc(C23CC4CC(CC(C4)C2)C3)cs1)c1cc2c(ccc3ccccc32)oc1=O | > 100 µM (inactive) | > 100 µM (inactive) |  | > 100 µM (inactive) | > 100 µM (inactive) | > 100 µM (inactive) | > 100 µM (inactive) | > 100 µM (inactive) | > 100 µM (inactive) | > 100 µM (inactive) | > 100 µM (inactive) | > 100 µM (inactive) | > 100 µM (inactive) | > 100 µM (inactive) |  | > 100 µM | > 100 µM (inactive) | > 100 µM (inactive) | > 100 µM (inactive) | > 100 µM (inactive)
CC(=O)c1ccc2c(c1)oc(=O)n2CCN(C)C | > 100 µM (inactive) | > 100 µM (inactive) | > 100 µM (inactive) | > 100 µM (inactive) | > 100 µM (inactive) | > 100 µM (inactive) | > 100 µM (inactive) |  | > 100 µM (inactive) | > 100 µM (inactive) | 51.6 µM (inactive) |  | > 100 µM (inactive) | > 100 µM (inactive) | > 100 µM (inactive) | > 100 µM | > 100 µM (inactive) | > 100 µM (inactive) | > 100 µM (inactive) | 
O=C1C=C(NCCOCCO)C(=O)c2c(O)ccc(O)c21 | 29.2 µM (inactive) | > 100 µM (inactive) | 14.5 µM (inactive) | 27.2 µM (inactive) | 30.1 µM (inactive) | 20.8 µM (inactive) | 47.4 µM (inactive) | 59.8 µM (inactive) | 15.3 µM (inactive) | 31.8 µM (inactive) | 34.4 µM (inactive) | 27.9 µM (inactive) | 30.5 µM (inactive) | 17.1 µM (inactive) | 33.4 µM (inactive) | 22.9 µM | 28.2 µM (inactive) | 18.1 µM (inactive) | 33.2 µM (inactive) | 
COc1cc2ccccc2oc1=O | 45.5 µM (inactive) | > 100 µM (inactive) | 24 µM (inactive) | 63 µM (inactive) | > 100 µM (inactive) | > 100 µM (inactive) | > 100 µM (inactive) | 39 µM (inactive) | 50.8 µM (inactive) | 51.6 µM (inactive) | 45.9 µM (inactive) | > 100 µM (inactive) | > 100 µM (inactive) | > 100 µM (inactive) |  | > 100 µM | > 100 µM (inactive) | > 100 µM (inactive) | > 100 µM (inactive) | > 100 µM (inactive)
N#Cc1ccc(OCc2ccc3nc(-c4ccccc4)c(Cl)nc3c2)cc1 | > 100 µM (inactive) | > 100 µM (inactive) | > 100 µM (inactive) | 43.6 µM (inactive) | > 100 µM (inactive) | > 100 µM (inactive) | > 100 µM (inactive) | > 100 µM (inactive) | > 100 µM (inactive) | > 100 µM (inactive) | > 100 µM (inactive) |  | 72.1 µM (inactive) | > 100 µM (inactive) |  | > 100 µM | > 100 µM (inactive) | > 100 µM (inactive) | > 100 µM (inactive) | > 100 µM (inactive)
COC(=O)/C(=N\N)C(C(=O)C(=O)Nc1cc(Cl)ccc1Cl)c1nc2ccc([N+](=O)[O-])cc2nc1O (centres undefined) | > 100 µM (inactive) | > 100 µM (inactive) | > 100 µM (inactive) | 50.9 µM (inactive) | > 100 µM (inactive) | > 100 µM (inactive) | > 100 µM (inactive) | 29.6 µM (inactive) | > 100 µM (inactive) | > 100 µM (inactive) | 47.9 µM (inactive) | > 100 µM (inactive) | > 100 µM (inactive) |  | > 100 µM (inactive) | 82.6 µM | > 100 µM (inactive) | > 100 µM (inactive) | > 100 µM (inactive) | > 100 µM (inactive)
NCCCCC(NC(=O)C(N)Cc1ccc(O)cc1)C(=O)NC(CCCCN)C(=O)NC(CCCCN)C(=O)ON1C(=O)CCC1=O (centres undefined) (H-YKKK-OSu; configuration not given here) | > 100 µM (inactive) | > 100 µM (inactive) | > 100 µM (inactive) | > 100 µM (inactive) | > 100 µM (inactive) | > 100 µM (inactive) |  | > 100 µM (inactive) | > 100 µM (inactive) |  | > 100 µM (inactive) | > 100 µM (inactive) | > 100 µM (inactive) | > 100 µM (inactive) |  | > 100 µM | > 100 µM (inactive) | > 100 µM (inactive) | > 100 µM (inactive) | > 100 µM (inactive)

— ChEMBL document CHEMBL1201862, “PubChem BioAssay data set” (2004)
